# From patent US8435980B2 (AbbVie Inc., priority 2009, dated 2013)
# Target: T1, Cdc7 (BEV coexpressed huCDC7/DBF4) (Homo sapiens, UniProt O00311)
# T1 construct: made in house; host or cells: BEV (baculovirus expression vector) co-expression; insect cells are implied but no cell line is named
# Assay: Cdc7 enzyme inhibition assay ([33P]ATP, biotinylated peptide substrate, FlashPlate)
# Type: biochemical
# Conditions: Table 2; Comparative Example lacking the chloro substituent versus the chloro Example
# Procedure: Cdc7 (BEV coexpressed huCDC7/DBF4) is prepared internally. Cdc7 assays are conducted as follows with final concentrations as listed. […] Reactions are quenched after 1 hr by the addition of 90 μL stop buffer (50 mM EDTA, 2M NaCl). […] (Ki) for exemplary compounds.
# T1 sequence (O00311 whole entry): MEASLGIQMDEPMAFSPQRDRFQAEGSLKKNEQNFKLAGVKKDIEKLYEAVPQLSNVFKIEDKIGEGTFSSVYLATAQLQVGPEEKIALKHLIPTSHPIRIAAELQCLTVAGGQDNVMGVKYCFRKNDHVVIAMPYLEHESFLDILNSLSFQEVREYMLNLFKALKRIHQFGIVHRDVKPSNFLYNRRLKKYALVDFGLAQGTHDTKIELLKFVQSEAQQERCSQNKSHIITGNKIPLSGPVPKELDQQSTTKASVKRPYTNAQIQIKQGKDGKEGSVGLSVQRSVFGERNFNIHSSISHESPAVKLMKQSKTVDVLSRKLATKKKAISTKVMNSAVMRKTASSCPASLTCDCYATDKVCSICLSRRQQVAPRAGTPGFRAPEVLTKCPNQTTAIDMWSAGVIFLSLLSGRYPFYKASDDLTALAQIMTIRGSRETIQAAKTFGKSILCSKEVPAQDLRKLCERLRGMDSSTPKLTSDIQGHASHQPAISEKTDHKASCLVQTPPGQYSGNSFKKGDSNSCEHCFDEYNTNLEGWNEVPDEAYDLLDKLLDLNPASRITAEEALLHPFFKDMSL
# T1 sequence (Q9UBU7 whole entry partner): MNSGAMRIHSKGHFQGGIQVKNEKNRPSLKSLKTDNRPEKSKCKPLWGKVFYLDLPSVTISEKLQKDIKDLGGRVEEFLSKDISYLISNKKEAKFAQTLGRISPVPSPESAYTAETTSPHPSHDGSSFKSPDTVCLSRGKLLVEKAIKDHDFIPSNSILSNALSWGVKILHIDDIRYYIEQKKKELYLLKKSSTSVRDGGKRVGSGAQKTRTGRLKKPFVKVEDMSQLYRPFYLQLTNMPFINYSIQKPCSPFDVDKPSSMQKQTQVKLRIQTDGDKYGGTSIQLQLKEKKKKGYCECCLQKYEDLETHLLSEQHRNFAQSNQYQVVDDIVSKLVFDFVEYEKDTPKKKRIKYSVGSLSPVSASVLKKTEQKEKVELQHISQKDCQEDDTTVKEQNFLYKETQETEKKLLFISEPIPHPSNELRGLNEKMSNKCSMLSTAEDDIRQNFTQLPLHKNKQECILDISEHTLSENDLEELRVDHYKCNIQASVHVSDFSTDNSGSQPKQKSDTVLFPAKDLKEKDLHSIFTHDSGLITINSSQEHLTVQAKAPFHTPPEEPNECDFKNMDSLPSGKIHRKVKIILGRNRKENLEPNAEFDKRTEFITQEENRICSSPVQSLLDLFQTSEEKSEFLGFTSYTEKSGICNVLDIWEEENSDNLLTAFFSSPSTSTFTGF
row,Structure (SMILES),Ki ratio comparisons (Ki Comparative Example/Ki Example)
1,"c1cnc2[nH]cc(-c3ccnc(NC4CCCCC4)c3)c2c1 [Comparative Example 1, N-cyclohexyl-4-(1H-pyrrolo[2,3-b]pyridin-3-yl)pyridin-2-amine, reference compound]",10
2,"Cc1cc(-c2c[nH]c3ncccc23)cc(NC2CCCCC2)n1 [Comparative Example 2, N-cyclohexyl-6-methyl-4-(1H-pyrrolo[2,3-b]pyridin-3-yl)pyridin-2-amine, reference compound]",14
3,"Cc1cc(-c2c[nH]c3ncccc23)cc(NCc2ccccc2)n1 [Comparative Example 3, N-benzyl-6-methyl-4-(1H-pyrrolo[2,3-b]pyridin-3-yl)pyridin-2-amine, reference compound]",75
4,"Cc1cc(-c2c[nH]c3ncccc23)cc(N[C@H]2CC[C@H](O)CC2)n1 [Comparative Example 4, Trans-4-{[6-methyl-4-(1H-pyrrolo[2,3-b]pyridin-3-yl)pyridin-2-yl]amino}cyclohexanol, reference compound]",54
5,"N#Cc1cc(-c2c[nH]c3ncccc23)cc(NC2CCCCC2)n1 [Comparative Example 5, 6-(cyclohexylamino)-4-(1H-pyrrolo[2,3-b]pyridin-3-yl)pyridine-2-carbonitrile, reference compound]",9
6,"N#Cc1cc(-c2c[nH]c3ncccc23)cc(NCc2ccccc2)n1 [Comparative Example 6, 6-(benzylamino)-4-(1H-pyrrolo[2,3-b]pyridin-3-yl)pyridine-2-carbonitrile, reference compound]",5
7,"NC(=O)c1cc(-c2c[nH]c3ncccc23)cc(NCc2ccccc2)n1 [Comparative Example 7, 6-(benzylamino)-4-(1H-pyrrolo[2,3-b]pyridin-3-yl)pyridine-2-carboxamide, reference compound]",45
8,"N#Cc1cc(-c2c[nH]c3ncccc23)cc(N2CCCCC2)n1 [Comparative Example 8, 6-piperidin-1-yl-4-(1H-pyrrolo[2,3-b]pyridin-3-yl)pyridine-2-carbonitrile, reference compound]",2
9,"NC(=O)c1cc(-c2c[nH]c3ncccc23)cc(N2CCCCC2)n1 [Comparative Example 9, 6-piperidin-1-yl-4-(1H-pyrrolo[2,3-b]pyridin-3-yl)pyridine-2-carboxamide, reference compound]",84

# Same assay, conditions: Table 3; enzyme inhibition data (Ki)
row,Structure (SMILES),Ki
1,"CS(=O)(=O)N[C@@H]1CCCC[C@H]1Nc1cc(-c2c[nH]c3ncccc23)cc(Cl)n1 (relative stereo) [Example 110, N-[(trans)-2-{[6-chloro-4-(1H-pyrrolo[2,3-b]pyridin-3-yl)pyridin-2-yl]amino}cyclohexyl]methanesulfonamide]",< 10 nM
2,"O=C(N[C@@H]1CCCC[C@H]1Nc1cc(-c2c[nH]c3ncccc23)cc(Cl)n1)C1CCN1 (relative stereo) [Example 120, N-[(trans)-2-{[6-chloro-4-(1H-pyrrolo[2,3-b]pyridin-3-yl)pyridin-2-yl]amino}cyclohexyl]azetidine-2-carboxamide]",< 10 nM
3,"CN1CCC(C(=O)N[C@H]2CC[C@H](Nc3cc(-c4c[nH]c5ncccc45)cc(Cl)n3)CC2)C1 (relative stereo) [Example 125, N-(trans-4-{[6-chloro-4-(1H-pyrrolo[2,3-b]pyridin-3-yl)pyridin-2-yl]amino}cyclohexyl)-1-methylpyrrolidine-3-carboxamide]",< 10 nM
4,"N[C@H]1CCCC[C@H]1Nc1cc(-c2c[nH]c3ncccc23)cc(Cl)n1 (relative stereo) [Example 131, (cis)-N-[6-chloro-4-(1H-pyrrolo[2,3-b]pyridin-3-yl)pyridin-2-yl]cyclohexane-1,2-diamine]",< 10 nM
5,"CS(=O)(=O)N[C@@H]1CCCC[C@@H]1Nc1cc(-c2c[nH]c3ncccc23)cc(Cl)n1 (relative stereo) [Example 132, N-[(cis)-2-{[6-chloro-4-(1H-pyrrolo[2,3-b]pyridin-3-yl)pyridin-2-yl]amino}cyclohexyl]methanesulfonamide]",< 10 nM
6,"CCN1CCC1C(=O)N[C@H]1CC[C@H](Nc2cc(-c3c[nH]c4ncccc34)cc(Cl)n2)CC1 (relative stereo) [Example 134, N-(trans-4-{[6-chloro-4-(1H-pyrrolo[2,3-b]pyridin-3-yl)pyridin-2-yl]amino}cyclohexyl)-1-ethylazetidine-2-carboxamide]",< 10 nM
7,"O=C(N[C@H]1CC[C@H](Nc2cc(-c3c[nH]c4ncccc34)cc(Cl)n2)CC1)C1CCN1C1CCCC1 (relative stereo) [Example 136, N-(trans-4-{[6-chloro-4-(1H-pyrrolo[2,3-b]pyridin-3-yl)pyridin-2-yl]amino}cyclohexyl)-1-cyclopentylazetidine-2-carboxamide]",< 10 nM
8,"O=C(CNC1CN2CCC1CC2)N[C@H]1CC[C@H](Nc2cc(-c3c[nH]c4ncccc34)cc(Cl)n2)CC1 (relative stereo) [Example 351, N~2~-1-azabicyclo[2.2.2]oct-3-yl-N-(trans-4-{[6-chloro-4-(1H-pyrrolo[2,3-b]pyridin-3-yl)pyridin-2-yl]amino}cyclohexyl)glycinamide]",< 10 nM

# More lines, now with the values ahead:
row,Ki,Structure (SMILES)
1,< 10 nM,"CN(C)[C@@H]1CCCC[C@@H]1Nc1cc(-c2c[nH]c3ncccc23)cc(Cl)n1 (relative stereo) [Example 140, (cis)-N′-[6-chloro-4-(1H-pyrrolo[2,3-b]pyridin-3-yl)pyridin-2-yl]-N,N-dimethylcyclohexane-1,2-diamine]"
2,< 10 nM,"O=S(=O)(N[C@H]1CC[C@H](Nc2cc(-c3c[nH]c4ncccc34)cc(Cl)n2)CC1)C1CCNC1 (relative stereo) [Example 151, N-(trans-4-{[6-chloro-4-(1H-pyrrolo[2,3-b]pyridin-3-yl)pyridin-2-yl]amino}cyclohexyl)pyrrolidine-3-sulfonamide]"
3,< 10 nM,"NC1CCC(N[C@H]2CC[C@H](Nc3cc(-c4c[nH]c5ncccc45)cc(Cl)n3)CC2)CC1 (relative stereo) [Example 158, trans-N-(4-aminocyclohexyl)-N′-[6-chloro-4-(1H-pyrrolo[2,3-b]pyridin-3-yl)pyridin-2-yl]cyclohexane-1,4-diamine]"
4,< 10 nM,"CCN1CCC(C(=O)N[C@H]2CC[C@H](Nc3cc(-c4c[nH]c5ncc(OC)cc45)cc(Cl)n3)CC2)C1 (relative stereo) [Example 219, N-(trans-4-{[6-chloro-4-(5-methoxy-1H-pyrrolo[2,3-b]pyridin-3-yl)pyridin-2-yl]amino}cyclohexyl)-1-ethylpyrrolidine-3-carboxamide]"
5,< 10 nM,"CCN1CCC(C(=O)N[C@H]2CC[C@H](Nc3cc(-c4c[nH]c5ncccc45)cc(Cl)n3)CC2)C1 (relative stereo) [Example 326, N-(trans-4-{[6-chloro-4-(1H-pyrrolo[2,3-b]pyridin-3-yl)pyridin-2-yl]amino}cyclohexyl)-1-ethylpyrrolidine-3-carboxamide]"
6,< 10 nM,"CN1CCC[C@H]1C(=O)N[C@H]1CC[C@H](Nc2cc(-c3c[nH]c4ncccc34)cc(Cl)n2)CC1 (relative stereo) [Example 336, N-(trans-4-{[6-chloro-4-(1H-pyrrolo[2,3-b]pyridin-3-yl)pyridin-2-yl]amino}cyclohexyl)-1-methylprolinamide]"
7,< 10 nM,"CN1CCCCC1C(=O)N[C@H]1CC[C@H](Nc2cc(-c3c[nH]c4ncccc34)cc(Cl)n2)CC1 (relative stereo) [Example 337, N-(trans-4-{[6-chloro-4-(1H-pyrrolo[2,3-b]pyridin-3-yl)pyridin-2-yl]amino}cyclohexyl)-1-methylpiperidine-2-carboxamide]"
8,< 10 nM,"CN1C(=O)CC[C@H]1C(=O)N[C@H]1CC[C@H](Nc2cc(-c3c[nH]c4ncccc34)cc(Cl)n2)CC1 (relative stereo) [Example 342, N-(trans-4-{[6-chloro-4-(1H-pyrrolo[2,3-b]pyridin-3-yl)pyridin-2-yl]amino}cyclohexyl)-1-methyl-5-oxoprolinamide]"
9,< 10 nM,"CC1CCC(NCC(=O)N[C@H]2CC[C@H](Nc3cc(-c4c[nH]c5ncccc45)cc(Cl)n3)CC2)CC1 (relative stereo) [Example 354, N-(trans-4-{[6-chloro-4-(1H-pyrrolo[2,3-b]pyridin-3-yl)pyridin-2-yl]amino}cyclohexyl)-N~2~-(4-methylcyclohexyl)glycinamide]"
10,< 10 nM,"O=C(NC1CCC(N[C@H]2CC[C@H](Nc3cc(-c4c[nH]c5ncccc45)cc(Cl)n3)CC2)CC1)OCc1ccccc1 (relative stereo) [Example 363, benzyl {4-[(trans-4-{[6-chloro-4-(1H-pyrrolo[2,3-b]pyridin-3-yl)pyridin-2-yl]amino}cyclohexyl)amino]cyclohexyl}carbamate]"
11,< 10 nM,"CC(=O)NC1CCC(N(C(C)=O)[C@H]2CC[C@H](Nc3cc(-c4c[nH]c5ncccc45)cc(Cl)n3)CC2)CC1 (relative stereo) [Example 365, N-[4-(acetylamino)cyclohexyl]-N-(trans-4-{[6-chloro-4-(1H-pyrrolo[2,3-b]pyridin-3-yl)pyridin-2-yl]amino}cyclohexyl)acetamide]"
12,< 10 nM,"CC(c1ccccc1)N1CC(C(=O)N[C@H]2CC[C@H](Nc3cc(-c4c[nH]c5ncccc45)cc(Cl)n3)CC2)C1 (relative stereo) [Example 396, N-(trans-4-{[6-chloro-4-(1H-pyrrolo[2,3-b]pyridin-3-yl)pyridin-2-yl]amino}cyclohexyl)-1-(1-phenylethyl)azetidine-3-carboxamide]"
13,< 10 nM,"CCN1CCC(C(=O)N[C@H]2CC[C@H](Nc3nc(Cl)cc(-c4c[nH]c5ncccc45)n3)CC2)C1 (relative stereo) [Example 462, N-(trans-4-{[4-chloro-6-(1H-pyrrolo[2,3-b]pyridin-3-yl)pyrimidin-2-yl]amino}cyclohexyl)-1-ethylpyrrolidine-3-carboxamide]"
